One block for each molecule: values may come before it. Starred links: 1 amine or outer side, 2 acyl side, 3 side chain; linkers in the order of their positions; H or OH if unused. Positions of bridges follow the written chain, without caps; N, C: chain ends. Non-standard residues stand in square brackets, D forms with d. Residues, ends and D or L forms follow the SMILES beside them. Groups on a side chain read outwards from the residue. Primed or numbered codes have the meaning given here. *: point of attachment. MeHseMe″ = (2S)-4-methoxy-2-(methylamino)butanoic acid (N-methyl-O-methyl-L-homoserine), COCC[C@@H](C(=O)[*:2])N(C)[*:1]; Phe(4-(1-Me-pyrazol-4-yl)) = Cn1cc(-c2ccc(C[C@H](N)C(=O)O)cc2)cn1; NMeAla(isoquinolin-7-yl) = CN[C@@H](Cc1ccc2ccncc2c1)C(=O)O; DOTA = O=C(O)CN1CCN(CC(=O)O)CCN(CC(=O)*)CCN(CC(=O)O)CC1; Phe(4-CH2COOH) = N[C@@H](Cc1ccc(CC(=O)O)cc1)C(=O)O; 3Pal(6-Ph) = N[C@@H](Cc1ccc(-c2ccccc2)nc1)C(=O)O; Phe(4-COOH) = N[C@@H](Cc1ccc(C(=O)O)cc1)C(=O)O; NMe2Nal = CN[C@@H](Cc1ccc2ccccc2c1)C(=O)O; NMeI = CC[C@H](C)[C@H](NC)C(=O)O; NMeQ = CN[C@@H](CCC(N)=O)C(=O)O; NMehCys = CN[C@@H](CCS)C(=O)O; NMehSer = CN[C@@H](CCO)C(=O)O; NMeK = CN[C@@H](CCCCN)C(=O)O; NMeC = CN[C@@H](CS)C(=O)O; Carboxymethyl = O=C(O)C*; CO = O=C([*:1])[*:2]
Assays:
human Glypican3 = target: T1, human Glypican3 (Homo sapiens, UniProt P51654); assay: SPR binding to Glypican-3, Method B-1 (Glypican3 immobilized on CM3 chip, Biacore T200); conditions: SPR method B-1
T1 construct: purchased R&D systems 2119-GP
Method: A CM3 sensor chip (Cytiva) was inserted into a Biacore T200 (Cytiva), primed three times with a running buffer: HBS-P+, pH 7.4 (Cytiva), and equilibrated at a flow rate of 30 μL/min. Ligand immobilization was performed at a flow rate of 10 μL/min. 50 μL each of 60 mM EDC solution (Cytiva) and 650 mM NHS solution (Cytiva) were mixed, and then reacted at a flow rate of 10 μL/min for 420 seconds, 150 μL of 0.2 μM human Glypican3 (R&D systems, catalog number: 2119-GP) solution which was prepared by diluting with 10 mM acetic acid solution (pH 5.0), was reacted at a flow rate of 10 μL/min for 420 seconds, and Glypican3 was immobilized on the CM3 sensor chip. After immobilization, 1.0 M ethanolamine aqueous solution (Cytiva) was allowed to react for 420 seconds at a flow rate of 10 μL/min for capping. A peptide lysate prepared to 10 mM in DMSO solution was diluted with running buffer to a final concentration of 10 μM peptide lysate. After that, 5 serial dilution series (100 nM, 50 nM, 25 nM, 10 nM, 5 nM) of peptide solutions were prepared. Using the above samples, peptide kinetics for Glypican3 was obtained by SPR measurement. Kinetics evaluation of Glypican3 was performed by SPR measurements at a flow rate of 10 μL/min, setting the association time to 120 seconds and the disassociation time to 600 seconds.
(§1) The obtained data by Method B-1, Method B-2, Method B-3 and Method B-4 were analyzed by follow. Single Cycle Kinetics was used as the kinetics evaluation model, and curve fitting was performed using Biacore T200 Evaluation Software Version 3.0 (Cytiva). The obtained sensorgram was subjected to curve fitting by the method of least squares and obtained KD values of the macrocyclic peptides in this disclosure for Glypican 3 protein are shown in Table 18.

Human Glypican3-Fc = Human Glypican3-Fc (Homo sapiens, UniProt P51654); assay: SPR binding to Glypican-3, Method B-2 (Glypican3-Fc captured by anti-human IgG (Fc) antibody on CM3 chip); conditions: SPR method B-2
Method: A CM3 sensor chip (Cytiva) was inserted into a Biacore T200 (Cytiva), primed three times with a running buffer: HBS-P-+, pH 7.4 (Cytiva), and equilibrated at a flow rate of 30 μL/min. Using the Anti-Fc Capture Kit (Cytiva), 50 LL each of 60 mM EDC solution (Cytiva) and 650 mM NHS solution (Cytiva) were mixed, and then reacted at a flow rate of 10 μL/min for 420 seconds, 150 μL of […] Anti-human IgG (Fc) Antibody solution was prepared by diluting with 10 mM acetic acid solution (pH 5.0), reacted at a flow rate of 10 μL/min for 420 seconds, and immobilized on a CM3 sensor chip. After immobilization, 1.0 M ethanolamine aqueous solution (Cytiva) was allowed to react for 420 seconds at a flow rate of 10 μL/min for capping. Human Glypican3-Fc (ACRO Biosystems, GP3-H5258) was allowed to react for 60 seconds at a flow rate of 10 μL/min. After capturing human Glypican3-Fc, a peptide solution prepared to 10 mM in DMSO solution was diluted with a running buffer to a final concentration of 10 μM. After that, 5 serial dilution series (100 nM, 50 nM, 25 nM, 10 nM, 5 nM) of peptide solutions were prepared. Using the above samples, peptide kinetics for Glypican3 was obtained by SPR measurement. Kinetics evaluation of Glypican3 was performed by SPR measurements at a flow rate of 10 μL/min. setting the association time to 120 seconds and the disassociation time to 600 seconds.
as §1

[1] = target: Human Glypican3-Fc (ACRO Biosystems, GP3-H5258) (human) (UniProt P51654); assay: SPR (Biacore T200), Method B-3: Glypican3-Fc captured on Protein A chip, peptide as analyte
[2] = target: T2, Human Glypican3-Fc (ACRO Biosystems, GP3-H5258) (human, UniProt P51654 25-559); assay: SPR (Biacore T200), Method B-4: Glypican3-Fc captured on Protein A chip, peptide at 40 nM
T2 construct: Bought fusion protein, captured in Methods B-2, B-3 and B-4; Catalogue number is printed only in Method B-2; not shown: Fc part of the bought fusion
Method: Using the above samples, peptide kinetics for Glypican3 was obtained by SPR measurement.
The obtained data by Method B-1, Method B-2, Method B-3 and Method B-4 were analyzed by follow. Single Cycle Kinetics was used as the kinetics evaluation model, and curve fitting was performed using Biacore T200 Evaluation Software Version 3.0 (Cytiva).

- Kd (human Glypican3): 2.5 nM
Molecule: CC[C@H](C)[C@@H]1NC(=O)[C@H](Cc2ccc(C(=O)O)cc2)NC(=O)[C@H](CCC(N)=O)N(C)C(=O)[C@H](CCCCNC(C)=O)NC(=O)[C@H](CCC(N)=O)N(C)C(=O)[C@H](CCC(N)=O)N(C)C(=O)CSC[C@@H](C(N)=O)N(C)C(=O)[C@H](Cc2ccc(-c3cnn(C)c3)cc2)NC(=O)CNC(=O)[C@H](Cc2ccc3ccccc3c2)N(C)C(=O)[C@H](Cc2ccc(C(=O)O)cc2)NC(=O)[C@H]([C@@H](C)CC)NC1=O [Conjugate 2-11] ({CH2CO}-[NMeQ][NMeQ]K(Ac)[NMeQ][Phe(4-COOH)]II[Phe(4-COOH)][NMe2Nal]G[Phe(4-(1-Me-pyrazol-4-yl))][NMeC]-NH2; thioether N-12)

- Kd (human Glypican3): 0.5 nM
Molecule: CC[C@H](C)[C@@H]1NC(=O)[C@H](Cc2ccc(C(=O)O)cc2)NC(=O)[C@H](CCC(N)=O)N(C)C(=O)[C@H](CC(=O)O)NC(=O)[C@H]([C@@H](C)CC)N(C)C(=O)[C@H](CCCCNC(C)=O)N(C)C(=O)CSC[C@@H](C(N)=O)N(C)C(=O)[C@H](Cc2ccc(-c3ccccc3)nc2)NC(=O)CNC(=O)[C@H](Cc2ccc3ccccc3c2)N(C)C(=O)[C@H](Cc2ccc(C(=O)O)cc2)NC(=O)[C@H]([C@@H](C)CC)NC1=O [Conjugate 2-1] ({CH2CO}-[NMeK](Ac)[NMeI]D[NMeQ][Phe(4-COOH)]II[Phe(4-COOH)][NMe2Nal]G[3Pal(6-Ph)][NMeC]-NH2; thioether N-12)

- Kd (human Glypican3): 1.8 nM
Molecule: CC[C@H](C)[C@@H]1NC(=O)[C@H]([C@@H](C)OC)NC(=O)[C@H](Cc2ccc(C(=O)O)cc2)NC(=O)[C@H](CCC(N)=O)N(C)C(=O)[C@H](CC(=O)O)NC(=O)[C@H](CCC(N)=O)N(C)C(=O)[C@H](CCC(N)=O)N(C)C(=O)SCC[C@@H](C(N)=O)N(C)C(=O)[C@H](Cc2ccc(-c3cnn(C)c3)cc2)NC(=O)CNC(=O)[C@H](Cc2ccc3ccccc3c2)N(C)C(=O)[C@H](Cc2ccc(C(=O)O)cc2)NC1=O [Conjugate 2-15] ([NMeQ][NMeQ]D[NMeQ][Phe(4-COOH)]T(Me)I[Phe(4-COOH)][NMe2Nal]G[Phe(4-(1-Me-pyrazol-4-yl))][NMehCys]-NH2; linker N-12 via CO)

- Kd (human Glypican3): 1.2 nM
Molecule: CC[C@H](C)[C@@H]1NC(=O)[C@H](Cc2ccc(C(=O)O)cc2)NC(=O)[C@H](CCC(N)=O)N(C)C(=O)[C@H](CCC(N)=O)NC(=O)[C@H]([C@@H](C)CC)N(C)C(=O)[C@H](CCCCNC(C)=O)N(C)C(=O)CSC[C@@H](C(N)=O)N(C)C(=O)[C@H](Cc2ccc(-c3cnn(C)c3)cc2)NC(=O)CNC(=O)[C@H](Cc2ccc3ccccc3c2)N(C)C(=O)[C@H](Cc2ccc(C(=O)O)cc2)NC(=O)[C@H]([C@@H](C)CC)NC1=O [Conjugate 2-3] ({CH2CO}-[NMeK](Ac)[NMeI]Q[NMeQ][Phe(4-COOH)]II[Phe(4-COOH)][NMe2Nal]G[Phe(4-(1-Me-pyrazol-4-yl))][NMeC]-NH2; thioether N-12)

- Kd (human Glypican3): 1.5 nM
Molecule: CC[C@H](C)[C@@H]1NC(=O)[C@H](Cc2ccc(C(=O)O)cc2)NC(=O)[C@H](CCC(N)=O)N(C)C(=O)[C@H](CC(=O)O)NC(=O)[C@H]([C@@H](C)CC)N(C)C(=O)[C@H](CCCCNC(C)=O)N(C)C(=O)CSC[C@@H](C(N)=O)N(C)C(=O)[C@H](Cc2ccc(-c3cnn(C)c3)cc2)NC(=O)CNC(=O)[C@H](Cc2ccc3ccccc3c2)N(C)C(=O)[C@H](Cc2ccc(C(=O)O)cc2)NC(=O)[C@H]([C@@H](C)CC)NC1=O [Conjugate 2-2] ({CH2CO}-[NMeK](Ac)[NMeI]D[NMeQ][Phe(4-COOH)]II[Phe(4-COOH)][NMe2Nal]G[Phe(4-(1-Me-pyrazol-4-yl))][NMeC]-NH2; thioether N-12)

Second part, the molecule before the results:

Molecule: CC[C@H](C)[C@@H]1NC(=O)[C@H](Cc2ccc(C(=O)O)cc2)NC(=O)[C@H](CCC(N)=O)N(C)C(=O)[C@H](CC(=O)O)NC(=O)[C@H]([C@@H](C)CC)N(C)C(=O)[C@H](CCCCNC(=O)[C@@H](Cc2ccccc2)NC(=O)CN2CCN(CC(=O)O)CCN(CC(=O)O)CCN(CC(=O)O)CC2)N(C)C(=O)CSC[C@@H](C(N)=O)N(C)C(=O)[C@H](Cc2ccc(-c3ccccc3)nc2)NC(=O)CNC(=O)[C@H](Cc2ccc3ccncc3c2)N(C)C(=O)[C@H](Cc2ccc(OCC(=O)O)cc2)NC(=O)[C@H]([C@@H](C)CC)NC1=O [Lu-C-41] ({CH2CO}-[NMeK]([dF-DOTA])[NMeI]D[NMeQ][Phe(4-COOH)]IIY(Carboxymethyl)[NMeAla(isoquinolin-7-yl)]G[3Pal(6-Ph)][NMeC]-NH2; thioether N-12)
- Kd (Human Glypican3-Fc): 0.8 nM

Molecule: CC[C@H](C)[C@@H]1NC(=O)[C@H](Cc2ccc(C(=O)O)cc2)NC(=O)[C@H](CCC(N)=O)N(C)C(=O)[C@H](CC(=O)O)NC(=O)[C@H](CCOC)N(C)C(=O)[C@H](CCCCNC(=O)CN2CCN(CC(=O)O)CCN(CC(=O)O)CCN(CC(=O)O)CC2)N(C)C(=O)CSC[C@@H](C(N)=O)N(C)C(=O)[C@H](Cc2ccc(-c3ccccc3)nc2)NC(=O)CNC(=O)[C@H](Cc2ccc3ccccc3c2)N(C)C(=O)[C@H](Cc2ccc(CC(=O)O)cc2)NC(=O)[C@H]([C@@H](C)CC)NC1=O [Lu-C-21] ({CH2CO}-[NMeK](DOTA)[NMehSer](Me)D[NMeQ][Phe(4-COOH)]II[Phe(4-CH2COOH)][NMe2Nal]G[3Pal(6-Ph)][NMeC]-NH2; thioether N-12)
- Kd (Human Glypican3-Fc): 1.04 nM

Molecule: CC[C@H](C)[C@@H]1NC(=O)[C@H]([C@@H](C)OC)NC(=O)[C@H](Cc2ccc(C(=O)O)cc2)NC(=O)[C@H](CCC(N)=O)N(C)C(=O)[C@H](CC(=O)O)NC(=O)[C@H]([C@@H](C)CC)N(C)C(=O)[C@H](CCCCNC(=O)CN2CCN(CC(=O)O)CCN(CC(=O)O)CCN(CC(=O)O)CC2)N(C)C(=O)CSC[C@@H](C(N)=O)N(C)C(=O)[C@H](Cc2ccc(-c3ccccc3)nc2)NC(=O)CNC(=O)[C@H](Cc2ccc3ccncc3c2)N(C)C(=O)[C@H](Cc2ccc(OCC(=O)O)cc2)NC1=O [Lu-C-30] ({CH2CO}-[NMeK](DOTA)[NMeI]D[NMeQ][Phe(4-COOH)]T(Me)IY(Carboxymethyl)[NMeAla(isoquinolin-7-yl)]G[3Pal(6-Ph)][NMeC]-NH2; thioether N-12)
- Kd (Human Glypican3-Fc): 0.7 nM

B1: Macrocyclic peptide of Example 2-33 (SEQ ID No. 50) (peptide)
peptide: XSDXFTIXFGXC
modifications: not fully specified; MeDapCOpipzaa-MeHseMe-D-MeDapCOpipzaa-F4COO-TMe-I-Yae-MeNal2-G-3Py6Ph-MeC-NH2; thioether ring from N-terminal acetyl to MeC12
- Kd [1]: 0.3 nM

B2: Macrocyclic peptide of Example 2-61 (SEQ ID No. 72) (peptide)
peptide: {CH2CO}-[NMeK][MeHseMe″]D[NMeQ][Phe(4-COOH)]IIY[NMeAla(isoquinolin-7-yl)]G[3Pal(6-Ph)][NMeC]-NH2
modifications: thioether N-12
SMILES: CC[C@H](C)[C@@H]1NC(=O)[C@H](Cc2ccc(C(=O)O)cc2)NC(=O)[C@H](CCC(N)=O)N(C)C(=O)[C@H](CC(=O)O)NC(=O)[C@H](CCOC)N(C)C(=O)[C@H](CCCCN)N(C)C(=O)CSC[C@@H](C(N)=O)N(C)C(=O)[C@H](Cc2ccc(-c3ccccc3)nc2)NC(=O)CNC(=O)[C@H](Cc2ccc3ccncc3c2)N(C)C(=O)[C@H](Cc2ccc(O)cc2)NC(=O)[C@H]([C@@H](C)CC)NC1=O
- Kd [2]: 0.23 nM

B3: Macrocyclic peptide of Example 2-37 (SEQ ID No. 54) (peptide)
peptide: XSDXFTIXFGXC
modifications: not fully specified; MeDapCOpipzaa-MeHseMe-D-MeDapCOpipzaa-F4COO-TMe-I-Yae-MeNal27N-G-3Py6Ph-MeC-NH2; thioether ring from N-terminal acetyl to MeC12
- Kd [1]: 1 nM
